Paper PMC7736581, “Activation of the IRE1 RNase through remodeling of the kinase front pocket by ATP-competitive ligands” (Nature Communications, 2020)

Key:
Experiment in all cases: biochemical
Design in all cases: Invitrogen kinase panel: Z'Lyte activity (ATP at Km) or LanthaScreen competitive ATP-site binding, percent inhibition
[1] = target: T1, CHK1 (Homo sapiens, UniProt O14757)
T1 construct: gene CHEK1
T1 sequence (O14757 1-476): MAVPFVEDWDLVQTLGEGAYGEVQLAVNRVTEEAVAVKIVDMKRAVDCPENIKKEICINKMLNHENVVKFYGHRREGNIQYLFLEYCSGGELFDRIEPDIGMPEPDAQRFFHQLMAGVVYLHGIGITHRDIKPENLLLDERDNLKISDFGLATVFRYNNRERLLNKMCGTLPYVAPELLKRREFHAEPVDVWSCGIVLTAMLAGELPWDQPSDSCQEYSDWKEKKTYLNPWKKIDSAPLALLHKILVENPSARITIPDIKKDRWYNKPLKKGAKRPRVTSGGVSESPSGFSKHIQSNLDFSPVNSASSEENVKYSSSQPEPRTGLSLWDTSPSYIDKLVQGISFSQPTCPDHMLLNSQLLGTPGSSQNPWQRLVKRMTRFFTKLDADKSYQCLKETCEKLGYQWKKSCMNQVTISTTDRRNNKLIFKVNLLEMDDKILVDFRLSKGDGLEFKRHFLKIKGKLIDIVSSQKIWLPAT

[2] = target: T2, IKK_beta (Homo sapiens, UniProt O14920)
T2 construct: gene IKBKB
T2 sequence (O14920 1-756): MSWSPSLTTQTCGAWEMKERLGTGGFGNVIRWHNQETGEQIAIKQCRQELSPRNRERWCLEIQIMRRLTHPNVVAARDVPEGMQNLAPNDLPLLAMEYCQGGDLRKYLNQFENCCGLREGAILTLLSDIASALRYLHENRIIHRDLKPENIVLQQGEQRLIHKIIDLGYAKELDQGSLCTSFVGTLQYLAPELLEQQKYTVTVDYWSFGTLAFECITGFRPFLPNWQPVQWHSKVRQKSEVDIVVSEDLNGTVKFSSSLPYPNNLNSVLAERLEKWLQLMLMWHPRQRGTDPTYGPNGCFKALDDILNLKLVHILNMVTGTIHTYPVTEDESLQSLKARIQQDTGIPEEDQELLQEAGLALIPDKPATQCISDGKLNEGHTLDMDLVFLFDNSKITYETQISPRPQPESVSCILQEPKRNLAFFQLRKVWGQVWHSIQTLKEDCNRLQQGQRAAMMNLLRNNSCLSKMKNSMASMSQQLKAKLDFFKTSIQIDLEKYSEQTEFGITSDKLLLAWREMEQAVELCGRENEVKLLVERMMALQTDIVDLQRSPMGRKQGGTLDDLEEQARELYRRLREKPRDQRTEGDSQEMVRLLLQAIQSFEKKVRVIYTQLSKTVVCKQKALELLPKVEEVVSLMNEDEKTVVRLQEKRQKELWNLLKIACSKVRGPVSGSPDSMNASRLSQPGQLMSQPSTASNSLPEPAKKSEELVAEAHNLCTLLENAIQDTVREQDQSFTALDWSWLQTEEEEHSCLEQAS

[3] = target: T3, NEK1 (Homo sapiens, UniProt Q96PY6)
T3 sequence (Q96PY6 1-1258): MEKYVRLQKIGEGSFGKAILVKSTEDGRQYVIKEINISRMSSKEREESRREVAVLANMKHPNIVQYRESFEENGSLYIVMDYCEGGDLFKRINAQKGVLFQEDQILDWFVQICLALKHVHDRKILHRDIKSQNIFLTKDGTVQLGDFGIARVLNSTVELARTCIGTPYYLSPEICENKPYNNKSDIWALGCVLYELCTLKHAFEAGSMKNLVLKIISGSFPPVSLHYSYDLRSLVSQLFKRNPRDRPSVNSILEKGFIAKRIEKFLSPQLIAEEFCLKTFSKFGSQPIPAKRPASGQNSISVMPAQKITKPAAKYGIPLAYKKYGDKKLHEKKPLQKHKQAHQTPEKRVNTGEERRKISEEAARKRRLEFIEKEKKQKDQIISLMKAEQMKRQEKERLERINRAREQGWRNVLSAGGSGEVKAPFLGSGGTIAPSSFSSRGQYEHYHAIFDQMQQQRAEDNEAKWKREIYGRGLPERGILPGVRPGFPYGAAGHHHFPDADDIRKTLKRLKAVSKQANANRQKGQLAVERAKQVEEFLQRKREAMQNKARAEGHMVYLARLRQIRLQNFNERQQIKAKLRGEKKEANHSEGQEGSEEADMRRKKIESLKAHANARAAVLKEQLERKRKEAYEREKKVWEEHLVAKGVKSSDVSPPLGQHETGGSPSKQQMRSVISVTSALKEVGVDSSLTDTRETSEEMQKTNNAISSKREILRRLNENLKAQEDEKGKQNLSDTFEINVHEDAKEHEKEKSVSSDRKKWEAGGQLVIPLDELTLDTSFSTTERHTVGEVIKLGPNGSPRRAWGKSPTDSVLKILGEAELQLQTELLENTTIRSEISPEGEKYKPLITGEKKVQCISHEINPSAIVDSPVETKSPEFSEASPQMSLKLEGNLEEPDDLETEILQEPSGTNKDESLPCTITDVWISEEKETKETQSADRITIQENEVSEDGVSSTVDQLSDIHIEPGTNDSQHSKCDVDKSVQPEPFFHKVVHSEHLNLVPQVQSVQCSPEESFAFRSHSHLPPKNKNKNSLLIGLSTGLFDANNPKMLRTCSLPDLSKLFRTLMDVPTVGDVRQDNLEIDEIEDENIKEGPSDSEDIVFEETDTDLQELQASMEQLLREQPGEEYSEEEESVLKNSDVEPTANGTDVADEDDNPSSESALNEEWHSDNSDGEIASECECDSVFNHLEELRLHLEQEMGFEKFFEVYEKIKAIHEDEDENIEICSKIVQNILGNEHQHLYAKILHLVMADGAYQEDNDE

[4] = target: PRKAA1 (Homo sapiens, UniProt Q13131)
Sequence of PRKAA1 (Q13131 whole entry): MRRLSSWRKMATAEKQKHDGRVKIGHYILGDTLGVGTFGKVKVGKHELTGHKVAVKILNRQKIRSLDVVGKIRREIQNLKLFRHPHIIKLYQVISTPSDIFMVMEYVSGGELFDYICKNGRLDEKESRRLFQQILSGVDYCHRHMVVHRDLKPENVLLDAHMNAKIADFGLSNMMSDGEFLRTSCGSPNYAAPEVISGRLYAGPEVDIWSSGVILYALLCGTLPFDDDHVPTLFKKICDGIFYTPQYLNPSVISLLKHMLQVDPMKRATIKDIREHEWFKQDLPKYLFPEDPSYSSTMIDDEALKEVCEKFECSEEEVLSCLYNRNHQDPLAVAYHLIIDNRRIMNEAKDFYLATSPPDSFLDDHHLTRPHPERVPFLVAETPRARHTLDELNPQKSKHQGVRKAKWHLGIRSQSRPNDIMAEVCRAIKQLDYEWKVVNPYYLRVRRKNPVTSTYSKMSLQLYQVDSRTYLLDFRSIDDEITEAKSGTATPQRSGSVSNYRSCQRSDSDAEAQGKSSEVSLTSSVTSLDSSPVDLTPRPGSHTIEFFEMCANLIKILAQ
Sequence of PRKAA1 (P54619 whole entry partner): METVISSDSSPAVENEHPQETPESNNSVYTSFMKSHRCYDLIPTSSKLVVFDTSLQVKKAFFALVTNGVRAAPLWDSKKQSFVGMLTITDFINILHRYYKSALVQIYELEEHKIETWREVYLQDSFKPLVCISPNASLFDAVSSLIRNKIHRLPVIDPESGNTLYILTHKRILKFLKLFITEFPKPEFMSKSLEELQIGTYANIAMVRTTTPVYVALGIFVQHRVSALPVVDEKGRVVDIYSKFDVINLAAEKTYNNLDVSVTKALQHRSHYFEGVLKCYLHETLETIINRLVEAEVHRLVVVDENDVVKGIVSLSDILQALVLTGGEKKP
Sequence of PRKAA1 (Q9Y478 whole entry partner): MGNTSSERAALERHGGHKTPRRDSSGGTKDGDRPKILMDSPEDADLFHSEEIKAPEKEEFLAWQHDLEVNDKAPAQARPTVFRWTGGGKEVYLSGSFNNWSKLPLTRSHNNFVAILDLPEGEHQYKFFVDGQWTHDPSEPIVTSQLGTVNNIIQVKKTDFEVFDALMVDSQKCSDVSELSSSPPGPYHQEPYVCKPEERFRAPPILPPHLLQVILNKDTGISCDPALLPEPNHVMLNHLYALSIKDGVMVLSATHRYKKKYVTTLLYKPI

[5] = target: Src (Homo sapiens, UniProt P12931)
Sequence of Src (P12931 whole entry): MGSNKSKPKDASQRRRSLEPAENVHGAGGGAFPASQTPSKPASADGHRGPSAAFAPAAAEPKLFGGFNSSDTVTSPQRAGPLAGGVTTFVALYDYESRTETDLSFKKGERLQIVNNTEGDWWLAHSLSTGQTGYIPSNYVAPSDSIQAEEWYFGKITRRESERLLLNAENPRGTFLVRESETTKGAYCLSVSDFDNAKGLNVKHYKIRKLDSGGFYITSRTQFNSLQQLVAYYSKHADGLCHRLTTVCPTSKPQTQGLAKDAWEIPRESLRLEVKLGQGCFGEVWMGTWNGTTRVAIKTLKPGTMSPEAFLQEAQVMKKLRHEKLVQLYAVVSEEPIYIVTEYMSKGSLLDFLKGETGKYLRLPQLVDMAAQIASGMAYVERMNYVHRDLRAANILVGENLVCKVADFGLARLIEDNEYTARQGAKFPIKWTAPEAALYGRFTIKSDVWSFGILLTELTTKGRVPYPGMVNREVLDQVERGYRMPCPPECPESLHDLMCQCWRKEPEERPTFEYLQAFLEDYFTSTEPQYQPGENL

Compound: CCOC(=O)Nc1cccc2c(Oc3ncccc3-c3ccnc(N[C@H]4CCCNC4)n3)c(C)ccc12 [G-1749]
- inhibition at 1 µM [1]: 7.5%
- inhibition at 1 µM [2]: -2%
- inhibition at 1 µM [3]: 0.5%
- inhibition at 1 µM [4]: 0%
- inhibition at 1 µM [5]: 28%

Compound: CC#CC(=O)Nc1cccc2c(Oc3ncccc3-c3ccnc(N[C@H]4CCCNC4)n3)c(C)ccc12 [G-7658]
- inhibition at 1 µM [1]: 4%
- inhibition at 1 µM [2]: 0%
- inhibition at 1 µM [3]: 3%
- inhibition at 1 µM [4]: 12%
- inhibition at 1 µM [5]: 22.5%

Compound: O=c1cc(-c2n[nH]c3ncc(-c4c(F)cccc4F)cc23)nc(N2CCC(O)CC2)[nH]1 [G-9807]
- inhibition at 1 µM [1]: 94.8%
- inhibition at 1 µM [2]: 80.4%
- inhibition at 1 µM [3]: 90.2%
- inhibition at 1 µM [4]: 96.2%
- inhibition at 1 µM [5]: 52.5%
